# Laboratory results published in patent publication US3983248A (priority 1971, dated 1976).
# Where a name gives a salt, the structure may show the parent alone.
# What was measured:
# [1] = toxicity comparison of prior art compound with the compounds of the invention; settings: prior art compound prepared and tested by applicants
# Text: The closest prior art compound known to applicants is 1,5-bis[N-(4-diethylamino- 1-methylbutyl)sulfamoyl]-anthraquinone. The preparation of this compound is disclosed in I. Kh. Fel'dman, Z. Ovsyanaya, and E. Kozlov, Tr. Leningr. Khim.-Farmatsevt. Inst. 1960 (11), 48-53; CA 59: 11312.
# [2] = system: virus (Vaccinia IHD, Encephalomyocarditis, Influenza Ao (PR8), Influenza A/Equine (Prague), Mengo, Semliki Forest); format: in vivo, mice; settings: prior art compound prepared and tested by applicants
# Vaccinia IHD = format: in vivo, mice; settings: Vaccinia IHD 24 ID50, subcutaneous in tail; lesion scored on 7th day; subcutaneous treatment 28, 22, 4 hrs. pre- and 2, 20, 26 hrs. post-challenge; 2 to 50 mg. per kg.
# hygroscopicity = format: physicochemical; settings: dihydrochloride salt
# Method: Following the procedure of Example 1 and using anthraquinone-2,7-disulfonylchloride, the title compound was obtained. Since the dihydrochloride was hygroscopic, it was converted to the free base by stirring it in a 10% sodium carbonate solution and recrystallized from a mixture of ether and hexane, m.p. 93°-95°.
smiles,measurement,setting,value
"CCN(CC)CCCC(C)NS(=O)(=O)c1cccc2c1C(=O)c1cccc(S(=O)(=O)NC(C)CCCN(CC)CC)c1C2=O (stereo not shown) [1,5-bis[N-(4-diethylamino-1-methylbutyl)sulfamoyl]-anthraquinone]",toxicity relative to the compounds of this invention,[1],very much more toxic than the compounds of this invention
same,activity in antiviral tests used with the compounds of this invention,[2],inactive
"CCCCN(CCCC)CCCNS(=O)(=O)c1ccc2c(c1)C(=O)c1cc(S(=O)(=O)NCCCN(CCCC)CCCC)ccc1C2=O [Example 6, 2,7-Bis-[N-(3-dibutylaminopropyl)sulfamoyl]-anthraquinone]",antiviral activity: lesions of treated animals compared to controls,Vaccinia IHD,fewer lesions
CCCCN(CCCC)CCCNS(=O)(=O)c1ccc2c(c1)C(=O)c1cc(S(=O)(=O)NCCCN(CCCC)CCCC)ccc1C2=O [Example 3 dihydrochloride],hygroscopicity,hygroscopicity,hygroscopic
